Data from US9206236B2, “Peptides for treating cancer” (Gene Signal International SA, priority 2010, dated 2015).
“Also recorded” adds a separate entry of the source. Where a SMILES comes first, the peptide text is derived from it. [ ]: non-standard residue; d: D form. pY = N[C@@H](Cc1ccc(OP(=O)(O)O)cc1)C(=O)O

Assays:
[1] = Solubility of peptides in 10% DMSO in PBS; type: physicochemical; details: 1 mg of peptide/ml of 10% DMSO in PBS
Description: GS-1 as well as the control peptide GS-0 were solubilized in DMSO and the resulting solutions were diluted 10 times with phosphate buffer saline (PBS) to obtain a concentration of 1 mg of peptide/ml of 10% DMSO in PBS. At this concentration, all peptides were soluble in 10% DMSO.
GS-2 as well as the control peptide GS-0 were solubilized in DMSO and the resulting solutions were diluted 10 times with phosphate buffer saline (PBS) to obtain a concentration of 1 mg of peptide/ml of 10% DMSO in PBS. At this concentration, all peptides were soluble in 10% DMSO.

mTOR = mTOR status in HMEC after incubation with peptides (anti-mTor antibody Ser2448); type: cell-based, human
Description: (§1) Human EC grown in EGM-2MV (80% confluence) were incubated with the peptides of the invention or vehicle for the indicated time, washed three times in cold PBS and directly lysed in 2 ml of ice-cold lysis buffer (10 mM Tris pH 7.5, 150 mM NaCl, 1 mM PMSF, 0.5 μg/ml leupeptin, 1 μg/ml pepstatin A, and 1 μg/ml aprotinin) by incubation for 30 min at 4° C. Cell lysate were spun at […] for 10 min, insoluble materials were discarded, and protein contents measured by Bradford assay of supernatants were adjusted. Cell lysate (1 ml) was precleared with 25 μl of protein G-plus agarose beads (Santa Cruz) for 30 min, and proteins were then immunoprecipitated by adding 2 μg of the indicated antibody and incubated for 1 hr. The immunocomplex was pulled down with protein G-plus agarose beads and the beads were washed three times with lysis buffer. The immunoprecipitates were separated by NuPAGE® 4-12% Bis-Tris gel electrophoresis under reducing conditions, transferred to PVDF membrane (Novex System, Invitrogen), and the membrane was blocked with 5% (w/v) non-fat milk in TBS containing 0.1% v/v Tween-20 for 1 hr.
The status of mTOR in the HMEC following incubation with peptides GS-0 and GS-1 was investigated.

[2] = system: human microvascular endothelial cells (HMEC); assay: In vitro angiogenesis assay (Matrigel tube formation); type: cell-based; details: 500 μg/ml final concentration of peptide, images at 18 h
Description: Angiogenesis of human microvascular endothelial cells (HMEC) was induced in vitro using a Matrigel assay described by Al-Mahmood et al (2009, JPET, 2009; 58:933). This method is based on the differentiation of endothelial cells to form capillary structures on a Matrigel Matrix. Matrigel is prepared the Engelbreth-Holm-Swarm (EHS) mouse tumor, which represents a complex mixture of basement membrane proteins including type IV collagen, entactin, proteo-heparan sulfate and other growth factors.
Briefly, 250 μl of Matrigel were transferred to each well of a 24-well culture plate and incubated at 37° C. for 30 min to allow for the matrix solution to solidify. HMEC grown in complete growth medium EGM-2MV were harvested by trypsin, suspended in the same growth medium and 500 μl containing 70 000 cells were added on top of the solidified Matrigel in each well and in the presence or absence of peptide. Cells were maintained in a humidified atmosphere air containing 5% CO2 at 37° C. for 18-24 hrs. Endothelial tube formation was observed and photographed under an inverted light microscope.
The designed tyrosine phosphorylated and non phosphorylated peptides were tested for their influence onto the in vitro angiogenesis. The results of the in vitro angiogenesis assay were presented in FIG. 1, using HMEC and 500 μg/ml final concentration of each peptide.

[3] = biological target: T1, recruitment of the regulatory subunit (p85) of the enzyme PI-3K by IRS-1 (Homo sapiens, UniProt P27986); assay: Recruitment of p85 of PI-3K by IRS-1 (IRS-1 immunoprecipitation, anti-p85 immunoblot) in HMEC; type: cell-based; details: final concentration of peptide 500 μg/ml
T1 construct: endogenous in cells; host or cells: human microvascular endothelial cells (HMEC)
T1 sequence (P27986 whole entry): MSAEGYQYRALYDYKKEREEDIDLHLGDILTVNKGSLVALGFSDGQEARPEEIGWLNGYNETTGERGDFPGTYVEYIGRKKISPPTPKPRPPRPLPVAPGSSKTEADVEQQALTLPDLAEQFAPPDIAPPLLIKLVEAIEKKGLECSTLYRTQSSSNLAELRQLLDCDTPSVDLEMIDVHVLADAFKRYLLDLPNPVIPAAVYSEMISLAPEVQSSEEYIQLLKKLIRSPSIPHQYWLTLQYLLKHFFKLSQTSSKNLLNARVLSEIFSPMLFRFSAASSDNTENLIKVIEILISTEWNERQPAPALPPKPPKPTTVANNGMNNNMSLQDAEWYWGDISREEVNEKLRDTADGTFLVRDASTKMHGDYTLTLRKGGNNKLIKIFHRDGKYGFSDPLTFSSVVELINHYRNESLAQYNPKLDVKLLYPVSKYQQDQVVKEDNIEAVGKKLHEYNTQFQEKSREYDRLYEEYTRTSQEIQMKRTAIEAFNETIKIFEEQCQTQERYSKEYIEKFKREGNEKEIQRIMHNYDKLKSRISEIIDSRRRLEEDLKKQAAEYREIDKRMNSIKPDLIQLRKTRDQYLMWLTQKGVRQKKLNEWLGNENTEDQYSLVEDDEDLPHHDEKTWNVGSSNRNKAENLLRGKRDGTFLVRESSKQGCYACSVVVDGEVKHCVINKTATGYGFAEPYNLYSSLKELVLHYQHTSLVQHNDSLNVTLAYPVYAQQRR
Description: as §1
As it is widely admitted that the tyrosine phosphorylation of IRS-1 leads to its association with the regulatory subunit (p85) of the enzyme PI-3K, and this event lead to important increases in the enzymatic activity of this later, we have investigated the influence of the tyrosine phosphorylated and non phosphorylated peptides onto the recruitment of the regulatory subunit (p85) of the enzyme PI-3K by IRS-1. For that, human microvascular endothelial cells (HMEC) were incubated with the tyrosine phosphorylated and non phosphorylated peptides (final concentration of peptide 500 μg/ml) followed by cells lysis and immuoprecipitation of the protein IRS-1. The immunoprecipitates were then resolved in SDS-PAGE, proteins were transferred to membranes, and the membranes were immunoblotted with an anti-p85 PI3K monoclonal antibody.

[4] = Body weight and toxicity of mice bearing NCI-H460 tumors (Example 2); type: in vivo
Description: All experiments were reviewed by the Genopole's institutional animal care and use committee and were performed in accordance with institutional guidelines for animal care. Female BALB/c nu/nu mice (n=30) were used at 5-6 weeks of age. The animals were housed in laminar air-flow cabinets under pathogen-free conditions with a 12 h light/12 h dark schedule, and fed autoclaved standard chow and water ad libitum. […] Tumor cells (10^7 cells in 200 μl of HBSS) were injected subcutaneously into the right flanks of mice. […] At tumor volume about 150 mm3, animals were randomized, and separated into five groups of five animals. Control mice (group 1) were intraperitoneally injected with vehicle (10% DMSO in buffer saline) every day. GS-0 was dissolved in vehicle and intraperitoneally injected (group 2) every day (12 injections). GS-1 was dissolved in vehicle and intraperitoneally injected (group 3) every day (12 injections). Tumor volume and body weight were measured every other day over the treatment period (12 days).

NCI-H460 tumors = assay: NCI-H460 tumor xenograft in nude mice, tumor volume (Example 2); type: in vivo
Description: H460 cell line has cytology compatible with human Non-Small Cell Lung Cancer (NSCL). Cells were grown in MEM medium containing 10% FCS at 37° C., 5% CO2 humidified atmosphere. The absence of mycoplasms was confirmed by using the PCR Mycoplasma Detection kit (Takara). All experiments were reviewed by the Genopole's institutional animal care and use committee and were performed in accordance with institutional guidelines for animal care. Female BALB/c nu/nu mice (n=30) were used at 5-6 weeks of age. The animals were housed in laminar air-flow cabinets under pathogen-free conditions with a 12 h light/12 h dark schedule, and fed autoclaved standard chow and water ad libitum. The NCI-H460 human NSCL cell line was obtained from American Type Culture Collection (ATCC) and cells were grown in RPMI medium 1640 supplemented with 1 μM sodium pyruvate. Tumor cells (10^7 cells in 200 μl of HBSS) were injected subcutaneously into the right flanks of mice. After engraftment, tumor volume was measured by Vernier callipers, and calculated as described in Balsari A et al. (Balsari A et al. (2004) Eur J Cancer 40: 1275-1281). At tumor volume about 150 mm3, animals were randomized, and separated into five groups of five animals. Control mice (group 1) were intraperitoneally injected with vehicle (10% DMSO in buffer saline) every day. GS-0 was dissolved in vehicle and intraperitoneally injected (group 2) every day (12 injections). GS-1 was dissolved in vehicle and intraperitoneally injected (group 3) every day (12 injections). Tumor volume and body weight were measured every other day over the treatment period (12 days). GS-1 as well as the control peptide GS-0 were solubilized in DMSO and the resulting solutions were diluted 10 times with phosphate buffer saline (PBS) to obtain a concentration of 1 mg of peptide/ml of 10% DMSO in PBS. At this concentration, all peptides were soluble in 10% DMSO.

## CSCC[C@H](NC(=O)[C@H](Cc1ccccc1)NC(=O)[C@H](CCSC)NC(=O)[C@H](Cc1ccc(OP(=O)(O)O)cc1)NC(=O)CNC(C)=O)C(=O)N[C@@H](CO)C(N)=O [GS-1, GpYMFMS] (Ac-G[pY]MFMS-NH2)
[1]
  solubility in 10% DMSO: soluble
mTOR
  amounts of mTOR in HMEC relative to vehicle: much less amounts of mTOR
[2]
  in vitro angiogenesis-inhibitory activity: have in vitro angiogenesis-inhibitory activities
[3]
  influence onto the recruitment of the regulatory subunit (p85) of PI3K by IRS-1: very strong inhibitory effects
[4]; 8 mg/kg intraperitoneally every day, 12 injections
  toxicity and body weight loss during treatment: No toxicity and no body weight loss
[4]; Table 1, 8 mg/kg i.p. daily, day 1, in g
  Mean body weight D1: 23.58
[4]; Table 1, 8 mg/kg i.p. daily, day 3, in g
  Mean body weight D3: 23.27
[4]; Table 1, 8 mg/kg i.p. daily, day 5, in g
  Mean body weight D5: 20.69
[4]; Table 1, 8 mg/kg i.p. daily, day 7, in g
  Mean body weight D7: 23.29
[4]; Table 1, 8 mg/kg i.p. daily, day 9, in g
  Mean body weight D9: 23.72
[4]; Table 1, 8 mg/kg i.p. daily, day 11, in g
  Mean body weight D11: 23.81
[4]; Table 1, 8 mg/kg i.p. daily, day 13, in g
  Mean body weight D13: 23.48
NCI-H460 tumors; 8 mg/kg i.p. daily for 12 days
  influence on the in vivo growth of the tumor NCI-H460 (in words): highly significant and potent influence; also recorded: statistically significant and potent anti-tumoral activity
NCI-H460 tumors; 8 mg/kg i.p. daily for 12 days, n=5
  mean tumor volume at the end of treatment: 234.98 ± 69.22 mm^3
NCI-H460 tumors; Table 2, 8 mg/kg i.p. daily, day 1
  Mean tumor volume D1: 114 mm³
NCI-H460 tumors; Table 2, 8 mg/kg i.p. daily, day 3
  Mean tumor volume D3: 133 mm³
NCI-H460 tumors; Table 2, 8 mg/kg i.p. daily, day 5
  Mean tumor volume D5: 124 mm³
NCI-H460 tumors; Table 2, 8 mg/kg i.p. daily, day 7
  Mean tumor volume D7: 141 mm³
NCI-H460 tumors; Table 2, 8 mg/kg i.p. daily, day 9
  Mean tumor volume D9: 231 mm³
NCI-H460 tumors; Table 2, 8 mg/kg i.p. daily, day 11
  Mean tumor volume D11: 334 mm³
NCI-H460 tumors; Table 2, 8 mg/kg i.p. daily, day 13
  Mean tumor volume D13: 235 mm³

## DpYMTMQ (Ac-D[pY]MTMQ-NH2) [GS-3, tyrosine phosphorylated peptide]
[2]
  in vitro angiogenesis-inhibitory activity: have in vitro angiogenesis-inhibitory activities
